These results are taken from patent US7064120B2, “Tricyclic pyridyl carboxamides and derivatives thereof tocolytic oxytocin receptor antagonists” (Wyeth, priority 2001, dated 2006).

pIC50: −log10 of the molar value.

The term inhibition denotes the drop in the measured response relative to a control, in per cent. The pIC50 is the negative decadic logarithm of the IC50, by convention in mol/L.

In the first test the target is T1, human vasopressin V1a receptor subtype (Homo sapiens, UniProt P37288).
T1 construct: host or cells: CHO cells, stably transfected (pZeoSV vector for the Thibonnier line)
T1 sequence (P37288 whole entry): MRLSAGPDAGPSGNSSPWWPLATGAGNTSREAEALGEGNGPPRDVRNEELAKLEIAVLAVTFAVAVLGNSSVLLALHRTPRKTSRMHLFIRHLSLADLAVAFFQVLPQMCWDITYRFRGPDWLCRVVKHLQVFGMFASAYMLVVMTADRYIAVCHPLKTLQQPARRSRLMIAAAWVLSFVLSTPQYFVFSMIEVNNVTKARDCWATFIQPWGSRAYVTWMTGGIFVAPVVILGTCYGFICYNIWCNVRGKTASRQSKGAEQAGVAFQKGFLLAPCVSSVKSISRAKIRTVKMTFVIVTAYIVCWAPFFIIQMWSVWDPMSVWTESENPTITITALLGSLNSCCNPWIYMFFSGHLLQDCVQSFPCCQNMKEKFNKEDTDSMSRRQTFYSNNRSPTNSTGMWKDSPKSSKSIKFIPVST
In words: Vasopressin binding in CHO cell membranes expressing human vasopressin V1a subtype receptors ([3H]Manning ligand radioligand binding). The following applies: 100 nM. The essentials:
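Radioligand displacement: [3H]Manning ligand, added as 8 nM stock, binds human V1a receptor in CHO-cell membranes (25–50 μg/well), pH 7.4 Tris buffer with protease inhibitors, 60 min room temperature. Bound counts collected by filter harvesting; values are percent inhibition at stated concentration or nanomolar IC50.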
`Cc1cc(C(=O)N2Cc3ccc(C(=O)N4CCN(c5ccncc5)CC4)n3Cc3ccccc32)ccc1-c1ccccc1C(F)(F)F` [Example 1]: the “V1a % inhibition @ 100 nM” value came out at 9%.

As for `COc1ccccc1-c1ccc(C(=O)N2Cc3ccc(C(=O)N(C)CCc4ccccn4)n3Cc3ccccc32)cc1C` [Example 65, 10-[(2′-Methoxy-2-methyl-[1,1′-biphenyl]-4-yl)carbonyl]-N-methyl-N-[2-(2-pyridinyl)ethyl]-10,11-dihydro-5H-pyrrolo[2,1-c][1,4]benzodiazepine-3-carboxamide], the inhibition at 0.1 µM was found to be 25%.

In the case of `Cc1ccccc1-c1ccc(C(=O)N2Cc3ccc(C(=O)N(C)CCc4ccccn4)n3Cc3ccccc32)cc1C` [Example 66, 10-[(2,2′-Dimethyl-[1,1′-biphenyl]-4-yl)carbonyl]-N-methyl-N-[2-(2-pyridinyl)ethyl]-10,11-dihydro-5H-pyrrolo[2,1-c][1,4]benzodiazepine-3-carboxamide], the inhibition at 0.1 µM stood at 58%.

As for `COc1ccccc1-c1ccc(C(=O)N2Cc3ccc(C(=O)N(C)CCc4ccccn4)n3Cc3ccccc32)cc1` [Example 67, 10-[(2′-Methoxy-[1,1′-biphenyl]-4-yl)carbonyl]-N-methyl-N-[2-(2-pyridinyl)ethyl]-10,11-dihydro-5H-pyrrolo[2,1-c][1,4]benzodiazepine-3-carboxamide], the inhibition at 0.1 µM amounted to 40%.

Regarding `Cc1ccccc1-c1ccc(C(=O)N2Cc3ccc(C(=O)N(C)CCc4ccccn4)n3Cc3ccccc32)cc1` [Example 68, N-Methyl-10-[(2′-methyl-[1,1′-biphenyl]-4-yl)carbonyl]-N-[2-(2-pyridinyl)ethyl]-10,11-dihydro-5H-pyrrolo[2,1-c][1,4]benzodiazepine-3-carboxamide], the inhibition at 0.1 µM amounted to 81%.

As for `COc1cc(C(=O)N2Cc3ccc(C(=O)N(C)CCc4ccccn4)n3Cc3ccccc32)ccc1-c1ccccc1C` [Example 69, 10-[(2-Methoxy-2′-methyl-[1,1′-biphenyl]-4-yl)carbonyl]-N-methyl-N-[2-(2-pyridinyl)ethyl]-10,11-dihydro-5H-pyrrolo[2,1-c][1,4]benzodiazepine-3-carboxamide], the inhibition at 0.1 µM came to 72%.

Regarding `COc1cccc(-c2cc(OC)c(C(=O)N3Cc4ccc(C(=O)N(C)CCc5ccccn5)n4Cc4ccccc43)cc2Cl)c1` [Example 70, 10-[(6-Chloro-3,3′-dimethoxy-[1,1′-biphenyl]-4-yl)carbonyl]-N-methyl-N-[2-(2-pyridinyl)ethyl]-10,11-dihydro-5H-pyrrolo[2,1-c][1,4]benzodiazepine-3-carboxamide], the inhibition at 0.1 µM was found to be 8%.

With `COc1cc(C(=O)N2Cc3ccc(C(=O)N(C)CCc4ccccn4)n3Cc3ccccc32)ccc1-c1cccc2ccccc12` [Example 71, 10-[3-Methoxy-4-(naphthalen-1-yl)benzoyl]-N-methyl-N-[2-(2-pyridinyl)ethyl]-10,11-dihydro-5H-pyrrolo[2,1-c][1,4]benzodiazepine-3-carboxamide], the inhibition at 0.1 µM turned out to be 20%.

For `COc1cccc(-c2ccc(C(=O)N3Cc4ccc(C(=O)N(C)CCc5ccccn5)n4Cc4ccccc43)cc2OC)c1` [Example 72, 10-[(2,3′-Dimethoxy-[1,1′-biphenyl]-4-yl)carbonyl]-N-methyl-N-[2-(2-pyridinyl)ethyl]-10,11-dihydro-5H-pyrrolo[2,1-c][1,4]benzodiazepine-3-carboxamide], the inhibition at 0.1 µM was determined as 54%.

As for `CN(CCc1ccccn1)C(=O)c1ccc2n1Cc1ccccc1N(C(=O)c1ccc(-c3cccc4ccccc34)cc1Cl)C2` [Example 73, 10-[2-Chloro-4-(naphthalen-1-yl)benzoyl]-N-methyl-N-[2-(2-pyridinyl)ethyl]-10,11-dihydro-5H-pyrrolo[2,1-c][1,4]benzodiazepine-3-carboxamide], the inhibition at 0.1 µM was 6%.

On to `Cc1cc(C(=O)N2Cc3ccc(C(=O)N(C)CCc4ccccn4)n3Cc3ccccc32)ccc1-c1ccccc1C(F)(F)F` [Example 74, N-Methyl-10-{[2-methyl-2′-trifluoromethyl-[1,1′-biphenyl]-4-yl]carbonyl}-N-[2-(2-pyridinyl)ethyl]-10,11-dihydro-5H-pyrrolo[2,1-c][1,4]benzodiazepine-3-carboxamide], for which the inhibition at 0.1 µM was determined as 63%.

In the case of `COc1ccccc1-c1ccc(C(=O)N2Cc3ccc(C(=O)N4CCN(c5ccccn5)CC4)n3Cc3ccccc32)cc1C` [Example 75, {10-[(2′-Methoxy-2-methyl-[1,1′-biphenyl]-4-yl)carbonyl]-10,11-dihydro-5H-pyrrolo[2,1-c][1,4]benzodiazepin-3-yl}[4-(2-pyridinyl)-1-piperazinyl]methanone], the inhibition at 0.1 µM was -1%.

As for `Cc1ccccc1-c1ccc(C(=O)N2Cc3ccc(C(=O)N4CCN(c5ccccn5)CC4)n3Cc3ccccc32)cc1C` [Example 76, {10-[(2,2′-Dimethyl-[1,1′-biphenyl]-4-yl)carbonyl]-10,11-dihydro-5H-pyrrolo[2,1-c][1,4]benzodiazepin-3-yl}[4-(2-pyridinyl)-1-piperazinyl]methanone], the inhibition at 0.1 µM worked out at 11%.

Take `COc1cccc(-c2ccc(C(=O)N3Cc4ccc(C(=O)N5CCN(c6ccccn6)CC5)n4Cc4ccccc43)cc2C)c1` [Example 77, {10-[(3′-Methoxy-2-methyl-[1,1′-biphenyl]-4-yl)carbonyl]-10,11-dihydro-5H-pyrrolo[2,1-c][1,4]benzodiazepin-3-yl}[4-(2-pyridinyl)-1-piperazinyl]methanone]: the inhibition at 0.1 µM worked out at 5%.

In the case of `COc1ccccc1-c1ccc(C(=O)N2Cc3ccc(C(=O)N4CCN(c5ccccn5)CC4)n3Cc3ccccc32)cc1` [Example 78, {10-[(2′-Methoxy-[1,1′-biphenyl]-4-yl)carbonyl]-10,11-dihydro-5H-pyrrolo[2,1-c][1,4]benzodiazepin-3-yl}[4-(2-pyridinyl)-1-piperazinyl]methanone], the inhibition at 0.1 µM is 6%.

`Cc1ccccc1-c1ccc(C(=O)N2Cc3ccc(C(=O)N4CCN(c5ccccn5)CC4)n3Cc3ccccc32)cc1` [Example 79, {10-[(2′-Methyl-[1,1′-biphenyl]-4-yl)carbonyl]-10,11-dihydro-5H-pyrrolo[2,1-c][1,4]benzodiazepin-3-yl}[4-(2-pyridinyl)-1-piperazinyl]methanone]: the inhibition at 0.1 µM stood at 18%.

Take `COc1cc(C(=O)N2Cc3ccc(C(=O)N4CCN(c5ccccn5)CC4)n3Cc3ccccc32)ccc1-c1ccccc1C` [Example 80, {10-[(2-Methoxy-2′-methyl-[1,1′-biphenyl]-4-yl)carbonyl]-10,11-dihydro-5H-pyrrolo[2,1-c][1,4]benzodiazepin-3-yl}[4-(2-pyridinyl)-1-piperazinyl]methanone]: the inhibition at 0.1 µM amounted to 6%.

As to `COc1cc(-c2ccccc2C)c(Cl)cc1C(=O)N1Cc2ccc(C(=O)N3CCN(c4ccccn4)CC3)n2Cc2ccccc21` [Example 81, {10-[(6-Chloro-3-methoxy-2′-methyl-[1,1′-biphenyl]-4-yl)carbonyl]-10,11-dihydro-5H-pyrrolo[2,1-c][1,4]benzodiazepin-3-yl}[4-(2-pyridinyl)-1-piperazinyl]methanone], the inhibition at 0.1 µM was -6%.

In the case of `COc1cccc(-c2cc(OC)c(C(=O)N3Cc4ccc(C(=O)N5CCN(c6ccccn6)CC5)n4Cc4ccccc43)cc2Cl)c1` [Example 82, {10-[(6-Chloro-3,3′-dimethoxy-[1,1′-biphenyl]-4-yl)carbonyl]-10,11-dihydro-5H-pyrrolo[2,1-c][1,4]benzodiazepin-3-yl}[4-(2-pyridinyl)-1-piperazinyl]methanone], the inhibition at 0.1 µM was -1%.

Staying with this test, now noted: value in parentheses.
Regarding `Cc1cc(C(=O)N2Cc3ccc(C(=O)N4CCN(Cc5ccc[n+]([O-])c5)CC4)n3Cc3ccccc32)ccc1-c1ccccc1C(F)(F)F` [Example 2, 10-{[2-Methyl-2′-trifluoromethyl-[1,1′-biphenyl]-4-yl]carbonyl}-3-({4-[(1-oxidopyridin-3-yl)methyl]piperazin-1-yl}carbonyl)-10,11-dihydro-5H-pyrrolo[2,1-c][1,4]benzodiazepine], the pIC50 was 5.50.

For `Cc1cc(C(=O)N2Cc3ccc(C(=O)N4CCN(Cc5ccc[n+]([O-])c5C)CC4)n3Cc3ccccc32)ccc1-c1ccccc1C(F)(F)F` [Example 3, 3-({4-[(2-Methyl-1-oxidopyridin-3-yl)methyl]piperazin-1-yl}carbonyl)-10-{[2-methyl-2′-trifluoromethyl-[1,1′-biphenyl]-4-yl]carbonyl}-10,11-dihydro-5H-pyrrolo[2,1-c][1,4]benzodiazepine], the pIC50 was less than 5.52.

Consider `Cc1cc(C(=O)N2Cc3ccc(C(=O)N(C)Cc4ccc[n+]([O-])c4)n3Cc3ccccc32)ccc1-c1ccccc1C(F)(F)F` [Example 4, N-Methyl-10-{[2-methyl-2′-trifluoromethyl-[1,1′-biphenyl]-4-yl]carbonyl}-N-[(1-oxidopyridin-3-yl)methyl]-10,11-dihydro-5H-pyrrolo[2,1-c][1,4]benzodiazepine-3-carboxamide], for which the pIC50 was 6.10.

With `COc1cc(C(=O)N2Cc3ccc(C(=O)N(C)Cc4cccnc4)n3Cc3ccccc32)ccc1-c1ccccc1C(F)(F)F` [Example 7, 10-{[2-Methoxy-2′-trifluoromethyl-[1,1′-biphenyl]-4-yl]carbonyl}-N-methyl-N-(pyridin-3-ylmethyl)-10,11-dihydro-5H-pyrrolo[2,1-c][1,4]benzodiazepine-3-carboxamide], the pIC50 was 6.10.

Regarding `COc1cccc(-c2ccc(C(=O)N3Cc4ccc(C(=O)N(C)CCc5ccccn5)n4Cc4ccccc43)cc2C)c1` [Example 62, 10-[(3′-Methoxy-2-methyl-[1,1′-biphenyl]-4-yl)carbonyl]-N-methyl-N-[2-(2-pyridinyl)ethyl]-10,11-dihydro-5H-pyrrolo[2,1-c][1,4]benzodiazepine-3-carboxamide], the pIC50 was 6.75.

For the compound `COc1cc(-c2ccccc2C)c(Cl)cc1C(=O)N1Cc2ccc(C(=O)N(C)CCc3ccccn3)n2Cc2ccccc21` [Example 63, 10-[(6-Chloro-3-methoxy-2′-methyl-[1,1′-biphenyl]-4-yl)carbonyl]-N-methyl-N-[2-(2-pyridinyl)ethyl]-10,11-dihydro-5H-pyrrolo[2,1-c][1,4]benzodiazepine-3-carboxamide], the pIC50 was 6.56.
